Source: patent publication US11319322B2, “Substituted aryl ether compound, preparation method thereof, pharmaceutical composition and use thereof” (Xiamen University, priority 2017, dated 2022)

Tests used:
Assay type in all cases: cell-based
wild-type BaF3 = assay: Growth inhibition of wild-type BaF3 cells, broad-spectrum toxicity (MTS); details: Mus musculus, 48 h, read-out: WT Ba/F3 (IC50/nM)
Method: Growth inhibitory activity of compounds on cell lines stably transfected with kinase
The activity of compounds against kinase RET is evaluated by their effect of inhibiting growth of cell lines stably transfected with kinase CCDC6-RET-BaF3, KIF5B-RET-BaF3, and wild-type BaF3 (Proc. Natl. Acad. Sci. USA., 2006, 103, 3153-8.). The growth of the cell lines stably transfected with kinase CCDC6-RET-BaF3, KIF5B-RET-BaF3 depends on their kinase activity. If a compound can inhibit the activity of the kinase RET per se or the activity of the RET signaling pathway, the compound can inhibit the growth of BaF3 cells stably transfected with kinase. […] Therefore, a larger ratio between IC50 of a compound to wild-type BaF3 and IC50 of the compound to the cell lines stably transfected with kinase CCDC6-RET-BaF3, KIF5B-RET-BaF3 indicates better targeting.
The specific test method is given as follows:
1) Medium: DMEM (Dulbecco's modified eagle medium) or RPMI 1640 (containing 10% fetal bovine serum, 100 μg/mL ampicillin, 100 μg/mL streptomycin).
2) Reagents: MTS reaction solution (containing 2 mg/mL of MTS [3-(4,5-dimethylthiazol-2-yl)-5-(3-carboxymethoxyphenyl)-2-(4-sulfophenyl)-2H-tetrazolium, inner Salt]; 100 μg/mL PES (phenazine […])).
3) Compound test: cells stably transfected with kinase (CCDC6-RET-BaF3, KIF5B-RET-BaF3) or wild-type BaF3 cells (2×10^4 cells/well) were incubated into a 96-well culture plate, the volume of cell culture fluid was 90 μL, and then 10 μL of the compound at each gradient concentration was added (the highest concentration was 10 μM, which was diluted stepwise by ⅓, and 8 concentration points were set in total; the system contained 0.1% DMSO (dimethyl sulfoxide)). The cell plate with uniformly mixed compound was cultured in a cell culture incubator (37° C.; 5% CO2) for 48 h, then 20 μL of MTS reaction solution was added, uniformly mixed and incubated in the cell culture incubator (37° C.; 5% CO2) for 1-4 hr, OD values at 490 nm were measured by a microplate reader (VARIOSKAN FLASH, Thermo). Three parallels were set in each group of experiments, with 0.1% (a final concentration) DMSO as a negative control, and a medium without cells or compounds as a blank control. The cell growth inhibition rate was calculated by the following formula: Cell growth inhibition rate %=1−(ODexperimental group−ODblank group)/(ODnegative group−ODblank group)×100%
4) IC50 calculation: The semi-inhibitory concentration of the compound acting on cell growth was calculated using GradPad Prism 5 software according to the measured cell growth inhibition rate.

KIF5B-RET-BaF3 = target: T1, KIF5B-RET-BaF3 (Homo sapiens, UniProt P07949); assay: Growth inhibition of KIF5B-RET-BaF3 cells stably transfected with kinase (MTS); details: 48 h, read-out: KIF5B-RET (IC50/nM)
T1 construct: fused on or other part: P33176 (Kinesin-1 heavy chain)
T1 sequence (P07949 whole entry, change not shown, the tested form may be a part): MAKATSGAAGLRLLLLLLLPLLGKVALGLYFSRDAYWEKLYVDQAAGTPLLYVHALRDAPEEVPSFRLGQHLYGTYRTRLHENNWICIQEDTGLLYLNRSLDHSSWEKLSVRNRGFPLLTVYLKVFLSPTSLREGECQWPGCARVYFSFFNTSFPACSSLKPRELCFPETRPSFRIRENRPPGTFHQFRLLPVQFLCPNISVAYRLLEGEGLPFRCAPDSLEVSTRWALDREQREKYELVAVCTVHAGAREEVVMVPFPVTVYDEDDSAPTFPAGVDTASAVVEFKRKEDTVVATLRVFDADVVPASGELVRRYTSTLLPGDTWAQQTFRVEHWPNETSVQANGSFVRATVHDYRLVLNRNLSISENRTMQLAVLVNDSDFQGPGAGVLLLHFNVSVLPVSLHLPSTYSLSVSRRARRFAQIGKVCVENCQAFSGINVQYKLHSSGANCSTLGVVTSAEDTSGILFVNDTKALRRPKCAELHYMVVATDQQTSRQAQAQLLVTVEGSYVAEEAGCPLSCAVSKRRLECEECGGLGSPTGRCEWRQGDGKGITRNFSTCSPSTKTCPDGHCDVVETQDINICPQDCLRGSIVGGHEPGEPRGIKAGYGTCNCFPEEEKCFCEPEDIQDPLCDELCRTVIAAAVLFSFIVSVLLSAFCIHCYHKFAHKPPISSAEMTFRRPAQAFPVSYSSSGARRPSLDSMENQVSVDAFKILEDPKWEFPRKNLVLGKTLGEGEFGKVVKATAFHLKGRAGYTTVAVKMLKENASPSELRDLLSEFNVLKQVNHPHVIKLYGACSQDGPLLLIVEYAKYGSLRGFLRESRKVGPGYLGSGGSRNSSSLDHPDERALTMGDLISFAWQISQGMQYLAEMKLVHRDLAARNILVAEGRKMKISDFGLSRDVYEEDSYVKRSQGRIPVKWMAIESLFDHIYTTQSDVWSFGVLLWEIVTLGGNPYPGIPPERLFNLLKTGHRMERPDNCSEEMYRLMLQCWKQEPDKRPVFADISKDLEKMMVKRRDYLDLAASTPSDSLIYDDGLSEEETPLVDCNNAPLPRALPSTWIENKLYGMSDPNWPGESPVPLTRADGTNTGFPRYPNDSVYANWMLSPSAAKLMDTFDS
Summary of the method: (§1)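 IC50 derived from growth inhibition by MTS absorbance at 490 nm after 48 h compound exposure (top 10 μM, 1:3 steps, 8 points, 0.1% DMSO) of 2×10^4 RET-fusion (CCDC6-RET, KIF5B-RET) or wild-type BaF3 cells per well, in triplicate.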

CCDC6-RET-BaF3 = target: T2, CCDC6-RET-BaF3 (Homo sapiens, UniProt P07949); assay: Growth inhibition of CCDC6-RET-BaF3 cells stably transfected with kinase (MTS); details: 48 h, read-out: CCDC6-RET (IC50/nM)
T2 construct: fused on or other part: Q16204 (Coiled-coil domain-containing protein 6)
T2 sequence (P07949 whole entry, change not shown, the tested form may be a part): as above
Summary of the method: as §1

Row | SMILES | IC50 (wild-type BaF3) [nM] | GI50 (KIF5B-RET-BaF3) [nM] | GI50 (CCDC6-RET-BaF3) [nM]
1 | CN1CCN(Cc2cc(NC(=O)c3cccc(Oc4nc(-c5ccncc5)nc5cc[nH]c45)c3)cc(C(F)(F)F)c2)CC1 [III-p-2] | > 10000 | 672 | 449
2 | CNc1nc(Oc2cc(C(=O)Nc3ccc(CN4CCN(C)CC4)c(C(F)(F)F)c3)ccc2C)c2c(ccn2C)n1 [III-m-19] | 4020 | 3270 | 2510
3 | CN1CCN(Cc2ccc(C(=O)Nc3cc(Oc4nc(-c5ccc(O)cc5)nc5ccn(C)c45)ccc3Cl)cc2C(F)(F)F)CC1 [III-k-10] | 1440 | 2440 | 2300
4 | Cc1ccc(Oc2nc(-c3ccsc3)nc3ccn(C)c23)cc1NC(=O)c1ccc(CN2CCN(C)CC2)c(C(F)(F)F)c1 [III-j-8] | 1880 | 1320 | 1140
5 | Cc1ccc(C(=O)Nc2cc(CN3CCN(C)CC3)cc(C(F)(F)F)c2)cc1Oc1nc(-c2ccncc2)nc2cc[nH]c12 [III-q-2] | 843 | 594 | 351
6 | CN1CCN(Cc2ccc(C(=O)Nc3cc(Oc4nc(-c5ccsc5)nc5cc[nH]c45)ccc3Cl)cc2C(F)(F)F)CC1 [III-k-7] | 3720 | 1900 | 2960
7 | Cc1ccc(Oc2nc(-c3ccc(N)cc3)nc3c2ncn3C)cc1NC(=O)c1ccc(CN2CCN(C)CC2)c(C(F)(F)F)c1 [I-j-5] | 4200 | 2370 | 1880
8 | Cc1ccc(C(=O)Nc2cc(CN3CCN(C)CC3)cc(C(F)(F)F)c2)cc1Oc1nc(-c2cccnc2)nc2ccsc12 [VI-q-1] | 4360 | 3430 | 3570
9 | Cc1ccc(C(=O)Nc2ccc(CN3CCN(C)CC3)c(C(F)(F)F)c2)cc1Oc1nc(-c2ccc(Cl)cc2)nc2cc[nH]c12 [III-m-6] | 2790 | 3950 | 3770
10 | CN1CCN(Cc2ccc(NC(=O)c3cccc(Oc4cc(-c5ccncc5)nc5c4ccn5C)c3)cc2C(F)(F)F)CC1 [V-I-4] | 1420 | 143 | 337
11 | Cc1ccc(C(=O)Nc2ccc(CN3CCN(C)CC3)c(C(F)(F)F)c2)cc1Oc1nc(-c2cccc(O)c2)nc2ccn(C)c12 [III-m-15] | 7210 | 3930 | 2960
12 | Cc1ccc(-c2nc(Oc3ccc(Cl)c(NC(=O)c4ccc(CN5CCN(C)CC5)c(C(F)(F)F)c4)c3)c3c(ccn3C)n2)cc1 [III-k-16] | 3630 | 3190 | 2090
13 | Cc1ccc(C(=O)Nc2cccc(C(F)(F)F)c2)cc1Oc1nc(-c2ccncc2)nc2c1cnn2C [II-e-2] | > 10000 | 1770 | 1430
14 | Cc1ccc(C(=O)Nc2ccc(CN3CCN(C)CC3)c(C(F)(F)F)c2)cc1Oc1nc(-c2ccncc2)nc2[nH]cnc12 [I-m-1] | > 10000 | 810 | 504
15 | CN1CCN(Cc2ccc(C(=O)Nc3cc(Oc4nc(-c5cccnc5)nc5cc[nH]c45)ccc3Cl)cc2C(F)(F)F)CC1 [III-k-1] | 4160 | 1320 | 1860
16 | CN1CCN(Cc2ccc(C(=O)Nc3cccc(Oc4nc(-c5cccnc5)nc5[nH]ncc45)c3)cc2C(F)(F)F)CC1 [II-h-3] | 4090 | 820 | 343

Row | SMILES | IC50 (wild-type BaF3) [nM] | GI50 (KIF5B-RET-BaF3) [nM] | GI50 (CCDC6-RET-BaF3) [nM]
17 | Cc1ccc(C(=O)Nc2ccc(CN3CCN(C)CC3)c(C(F)(F)F)c2)cc1Oc1cc(-c2ccncc2)nc2[nH]ccc12 [V-m-2] | 905 | 978 | 1350
18 | Cc1ccc(Oc2nc(-c3ccncc3)nc3ccn(C)c23)cc1C(=O)Nc1cc(CN2CCN(C)CC2)cc(C(F)(F)F)c1 [III-r-4] | 1380 | 325 | 187
19 | Cc1ccc(Oc2nc(-c3cccnc3)nc3ccsc23)cc1C(=O)Nc1ccc(CN2CCN(C)CC2)c(C(F)(F)F)c1 [VI-n-1] | 4190 | 2840 | 3240
20 | Cc1ccc(C(=O)Nc2ccc(CN3CCN(C)CC3)c(C(F)(F)F)c2)cc1Oc1ncnc2ccn(C)c12 [III-m-22] | > 10000 | 854 | 597
21 | CN1CCN(Cc2ccc(C(=O)Nc3cc(Oc4nc(-c5ccccc5)nc5ccn(C)c45)ccc3Cl)cc2C(F)(F)F)CC1 [III-k-18] | 3890 | 3990 | 4120
22 | Cc1ccc(-c2nc(Oc3cc(C(=O)Nc4ccc(CN5CCN(C)CC5)c(C(F)(F)F)c4)ccc3C)c3[nH]ccc3n2)cc1 [III-m-4] | 3460 | 3860 | 2720
23 | Cc1ccc(C(=O)Nc2ccc(CN3CCN(C)CC3)c(C(F)(F)F)c2)cc1Oc1nc(-c2ccccc2)nc2cc[nH]c12 [III-m-3] | 3100 | 2410 | 2710
24 | CN1CCN(Cc2ccc(C(=O)Nc3cccc(Oc4nc(-c5ccncc5)nc5[nH]ncc45)c3)cc2C(F)(F)F)CC1 [II-h-4] | 3930 | 300 | 78.6
25 | CN1CCN(Cc2ccc(C(=O)Nc3cc(Oc4nc(-c5ccc(O)cc5)nc5cc[nH]c45)ccc3Cl)cc2C(F)(F)F)CC1 [III-k-9] | 1650 | 1490 | 1190
26 | CN1CCN(Cc2ccc(C(=O)Nc3cc(Oc4nc(-c5ccncc5)nc5[nH]ncc45)ccc3Cl)cc2C(F)(F)F)CC1 [II-k-4] | > 10000 | 104 | 37.7
27 | Cc1ccc(Oc2ncnc3ccn(C)c23)cc1NC(=O)c1ccc(CN2CCN(C)CC2)c(C(F)(F)F)c1 [III-j-18] | > 10000 | 1350 | 477
28 | Cc1ccc(-c2nc(Oc3cc(C(=O)Nc4ccc(CN5CCN(C)CC5)c(C(F)(F)F)c4)ccc3C)c3c(ccn3C)n2)cc1 [III-m-12] | 3580 | 4280 | 4020
29 | Cc1ccc(Oc2nc(-c3ccoc3)nc3cc[nH]c23)cc1NC(=O)c1ccc(CN2CCN(C)CC2)c(C(F)(F)F)c1 [III-j-9] | 4260 | 464 | 97.6
30 | Cc1ccc(Oc2nc(-c3ccc(N)cc3)nc3cc[nH]c23)cc1NC(=O)c1ccc(CN2CCN(C)CC2)c(C(F)(F)F)c1 [III-j-15] | 1200 | 620 | 745
31 | CN1CCN(Cc2ccc(NC(=O)c3cc(Oc4nc(-c5cccnc5)nc5cc[nH]c45)ccc3Cl)cc2C(F)(F)F)CC1 [III-o-1] | 1630 | 1550 | 2150
32 | Cc1ccc(C(=O)Nc2ccc(CN3CCN(C)CC3)c(C(F)(F)F)c2)cc1Oc1nc(-c2cccnc2)nc2ccn(C)c12 [III-m-9] | 1440 | 3050 | 1250
